This note sets out measurements from patent US7834144B2 (priority 2005, dated 2010).

For experiment [1], the target named is PrP^Sc (Homo sapiens, UniProt P04156). It is filed as binding. The conditions noted are these: for Exp. Mean (1 ul 10% CJD BH): streptavidin beads.
For experiment [2], the target named is PrPc (Homo sapiens, UniProt P04156). It is filed as binding.
[3] abbreviates: Table 5, 1 ul 10% CJD BH, 70% human plasma.
Setting [4] is: Table 5, 70% human plasma, ELISA signal.
The mark [5] stands for this setting: Table 5, 70% human plasma, streptavidin beads, ELISA signal.
Setting [6] is: Table 6, CJD brain homogenate in 20% human plasma.
The mark [7] stands for this setting: Table 6, CJD brain homogenate in 20% human plasma, ELISA signal.

“And” between values parts separate entries of the source, which are not always exact repeats. Identical values can stand only once. Like-named read-outs stand apart in the source and are kept apart here. Where a SMILES comes first, the peptide text is derived from it. Where no end group is shown, it is not given here. [ ]: non-standard residue; d: D form. The star is where a group is joined. ξ: configuration not given here. Biotinyl(4ξ) = O=C1N[C@H]2CSC(CCCCC(=O)*)[C@H]2N1; Nspe = C[C@H](NCC(=O)O)c1ccccc1; NhArg = N=C(N)NCCCCNCC(=O)O; Nmpe = not defined here; Nae = not defined here; Nlys = NCCCCNCC(=O)O

As for `CC(=O)N(CCCCN)CC(=O)N(CCCCN)CC(=O)N(CCCCN)CC(=O)N(CC(=O)N(CCCCN)CC(=O)N(CC(=O)N[C@@H](CCCCNC(=O)CCCCC1SC[C@@H]2NC(=O)N[C@H]12)C(N)=O)[C@@H](C)c1ccccc1)[C@@H](C)c1ccccc1` (some centres unmarked) [Peptoid Reagent IX] (Ac-[Nlys][Nlys][Nlys][Nspe][Nlys][Nspe]K(Biotinyl(4ξ))-NH2), the “Exp. Mean (as % of 68)” value is given as 121.9% in experiment [1] (Table 4, 1 ul 10% CJD BH, 70% human plasma) and 126.5% in experiment [1] (setting [3]). In addition, the “Exp. Mean (1 ul 10% CJD BH)” value in experiment [1] (Table 4, 70% human plasma, ELISA signal) turned out to be 1039.4; in experiment [1] (setting [4]) it was 528.8. Also, the “Control Mean (1 ul 10% Normal BH)” value came to 20.1 in experiment [2] (Table 4, 70% human plasma, streptavidin beads, ELISA signal) and 9.47 in experiment [2] (setting [5]).

Consider “Peptoid Reagent III: peptoid reagent comprising SEQ ID NO: 231, Nae-Nmpe-Nmpe-Nae-Nmpe-Nmpe-Nae-Nmpe-Nmpe ([Nae][Nmpe][Nmpe][Nae][Nmpe][Nmpe][Nae][Nmpe][Nmpe]; reading uncertain; also: printed as Nae-Nmpe-Nmpe-Nae-Nmpe-Nmpe-Nae-Nmpe-Nmpe)”, for which, in experiment [1] (setting [6]), the “Mean (% of 68)” value was 2.15%. The molecule further yielded a Mean in experiment [1] (setting [7]) of 1.83.

On to `CC(=O)N(CCCCN)CC(=O)N(CCCCN)CC(=O)N(CCCCN)CC(=O)N(CCCCN)CC(=O)N(CCCCN)CC(=O)N[C@@H](CCCCNC(=O)CCCCC1SC[C@@H]2NC(=O)N[C@H]12)C(N)=O` (some centres unmarked) [Peptoid Reagent I], for which the “Mean (% of 68)” value in experiment [1] (setting [6]) was 104.31%. The molecule further yielded a Mean in experiment [1] (setting [7]) of 88.64. Further, the “CJD Mean” value in experiment [1] (Table 8, 2 microliters of 10% CJD brain homogenate in 70% human plasma) was found to be 124.47. Also, the “Normal Mean” value in experiment [2] (Table 8, 2 microliters of 10% normal brain homogenate in 70% human plasma) is reported as 3.31.

As for `CC(=O)N(CCCCN)CC(=O)N(CCCCN)CC(=O)N(CCCCNC(=N)N)CC(=O)N(CC(=O)N(CCCCN)CC(=O)N(CC(=O)N[C@@H](CCCCNC(=O)CCCCC1SC[C@@H]2NC(=O)N[C@H]12)C(N)=O)[C@@H](C)c1ccccc1)[C@@H](C)c1ccccc1` (some centres unmarked) [Peptoid Reagent II] (Ac-[Nlys][Nlys][NhArg][Nspe][Nlys][Nspe]K(Biotinyl(4ξ))-NH2), in experiment [1] (setting [3]), the “Exp. Mean (as % of 68)” value was determined as 110.8%. In addition, in experiment [1] (setting [4]), the “Exp. Mean (1 ul 10% CJD BH)” value amounted to 463.5. Also, in experiment [1] (setting [6]), the “Mean (% of 68)” value was 124.85%. In experiment [1] (setting [7]), this molecule displayed a Mean of 106.10. Also, the “Control Mean (1 ul 10% Normal BH)” value in experiment [2] (setting [5]) stood at 7.02.

Regarding `CC(=O)N(CCCCN)CC(=O)N(CC(=O)N(CCCCN)CC(=O)N(CCCCN)CC(=O)N(CC(=O)N(CCCCN)CC(=O)N[C@@H](CCCCNC(=O)CCCCC1SC[C@@H]2NC(=O)N[C@H]12)C(N)=O)[C@@H](C)c1ccccc1)[C@@H](C)c1ccccc1` (some centres unmarked) [Peptoid Reagent X] (Ac-[Nlys][Nspe][Nlys][Nlys][Nspe][Nlys]K(Biotinyl(4ξ))-NH2), in experiment [1] (setting [3]), the “Exp. Mean (as % of 68)” value worked out at 114.5%. The “Exp. Mean (1 ul 10% CJD BH)” value in experiment [1] (setting [4]) is reported as 478.7. Further, the “Control Mean (1 ul 10% Normal BH)” value in experiment [2] (setting [5]) stood at 7.28.

As for “(GGG)QWNKPSKPKTN [compound 14, reference compound]”, in experiment [1], the Mean is on record as 4.74 and the “Mean (% of 68)” value is recorded as 5.58%.

On to “(GGG)KKRPKPGG [compound 68, reference compound]”, for which, in experiment [1], the “Exp. Mean (as % of 68)” value was 100.0% and 100.1%; the Mean was 84.98 and 137.9; the “Mean (% of 68)” value is given as 100.0%. In experiment [2], the “Control Mean (1 ul 10% Normal BH)” value is reported as 19.2.
